Laboratory results: patent US8546414B2, “Ion channel modulators and methods of use” (Vertex Pharmaceuticals Incorporated, priority 2004, dated 2013)
Where two headings read alike, the source gives them in different places.

Key:
[1] = neuropathic pain; cited from earlier work
NaV1.3 [2] = target: T1, NaV1.3 (Homo sapiens, UniProt Q9NY46); settings: read-out: TTX IC50; cited from earlier work
T1 construct: expressed in transfected cells; host or cells: HEK293

NaV1.6 = NaV1.6 (Homo sapiens, UniProt Q9UQD0); settings: read-out: TTX IC50; cited from earlier work
NaV1.8 [3] = target: T2, NaV1.8 (Homo sapiens, UniProt Q9Y5Y9); settings: read-out: TTX IC50; cited from earlier work
NaV1.9 = NaV1.9 (Homo sapiens, UniProt Q9UI33); settings: read-out: TTX IC50; cited from earlier work
NaV1.1 = NaV1.1 (Homo sapiens, UniProt P35498); settings: read-out: TTX IC50; cited from earlier work
NaV1.2 = NaV1.2 (Homo sapiens, UniProt Q99250); settings: read-out: TTX IC50; cited from earlier work
CaV2.2 = target: T3, CaV2.2 (Homo sapiens, UniProt Q00975); experiment: VIPR optical membrane potential assay with electrical stimulation, CaV2.2; assay type: cell-based; settings: Table 9, CaV 2.2 receptors
T3 construct: expressed in transfected cells; host or cells: HEK293
T3 sequence (Q00975 whole entry): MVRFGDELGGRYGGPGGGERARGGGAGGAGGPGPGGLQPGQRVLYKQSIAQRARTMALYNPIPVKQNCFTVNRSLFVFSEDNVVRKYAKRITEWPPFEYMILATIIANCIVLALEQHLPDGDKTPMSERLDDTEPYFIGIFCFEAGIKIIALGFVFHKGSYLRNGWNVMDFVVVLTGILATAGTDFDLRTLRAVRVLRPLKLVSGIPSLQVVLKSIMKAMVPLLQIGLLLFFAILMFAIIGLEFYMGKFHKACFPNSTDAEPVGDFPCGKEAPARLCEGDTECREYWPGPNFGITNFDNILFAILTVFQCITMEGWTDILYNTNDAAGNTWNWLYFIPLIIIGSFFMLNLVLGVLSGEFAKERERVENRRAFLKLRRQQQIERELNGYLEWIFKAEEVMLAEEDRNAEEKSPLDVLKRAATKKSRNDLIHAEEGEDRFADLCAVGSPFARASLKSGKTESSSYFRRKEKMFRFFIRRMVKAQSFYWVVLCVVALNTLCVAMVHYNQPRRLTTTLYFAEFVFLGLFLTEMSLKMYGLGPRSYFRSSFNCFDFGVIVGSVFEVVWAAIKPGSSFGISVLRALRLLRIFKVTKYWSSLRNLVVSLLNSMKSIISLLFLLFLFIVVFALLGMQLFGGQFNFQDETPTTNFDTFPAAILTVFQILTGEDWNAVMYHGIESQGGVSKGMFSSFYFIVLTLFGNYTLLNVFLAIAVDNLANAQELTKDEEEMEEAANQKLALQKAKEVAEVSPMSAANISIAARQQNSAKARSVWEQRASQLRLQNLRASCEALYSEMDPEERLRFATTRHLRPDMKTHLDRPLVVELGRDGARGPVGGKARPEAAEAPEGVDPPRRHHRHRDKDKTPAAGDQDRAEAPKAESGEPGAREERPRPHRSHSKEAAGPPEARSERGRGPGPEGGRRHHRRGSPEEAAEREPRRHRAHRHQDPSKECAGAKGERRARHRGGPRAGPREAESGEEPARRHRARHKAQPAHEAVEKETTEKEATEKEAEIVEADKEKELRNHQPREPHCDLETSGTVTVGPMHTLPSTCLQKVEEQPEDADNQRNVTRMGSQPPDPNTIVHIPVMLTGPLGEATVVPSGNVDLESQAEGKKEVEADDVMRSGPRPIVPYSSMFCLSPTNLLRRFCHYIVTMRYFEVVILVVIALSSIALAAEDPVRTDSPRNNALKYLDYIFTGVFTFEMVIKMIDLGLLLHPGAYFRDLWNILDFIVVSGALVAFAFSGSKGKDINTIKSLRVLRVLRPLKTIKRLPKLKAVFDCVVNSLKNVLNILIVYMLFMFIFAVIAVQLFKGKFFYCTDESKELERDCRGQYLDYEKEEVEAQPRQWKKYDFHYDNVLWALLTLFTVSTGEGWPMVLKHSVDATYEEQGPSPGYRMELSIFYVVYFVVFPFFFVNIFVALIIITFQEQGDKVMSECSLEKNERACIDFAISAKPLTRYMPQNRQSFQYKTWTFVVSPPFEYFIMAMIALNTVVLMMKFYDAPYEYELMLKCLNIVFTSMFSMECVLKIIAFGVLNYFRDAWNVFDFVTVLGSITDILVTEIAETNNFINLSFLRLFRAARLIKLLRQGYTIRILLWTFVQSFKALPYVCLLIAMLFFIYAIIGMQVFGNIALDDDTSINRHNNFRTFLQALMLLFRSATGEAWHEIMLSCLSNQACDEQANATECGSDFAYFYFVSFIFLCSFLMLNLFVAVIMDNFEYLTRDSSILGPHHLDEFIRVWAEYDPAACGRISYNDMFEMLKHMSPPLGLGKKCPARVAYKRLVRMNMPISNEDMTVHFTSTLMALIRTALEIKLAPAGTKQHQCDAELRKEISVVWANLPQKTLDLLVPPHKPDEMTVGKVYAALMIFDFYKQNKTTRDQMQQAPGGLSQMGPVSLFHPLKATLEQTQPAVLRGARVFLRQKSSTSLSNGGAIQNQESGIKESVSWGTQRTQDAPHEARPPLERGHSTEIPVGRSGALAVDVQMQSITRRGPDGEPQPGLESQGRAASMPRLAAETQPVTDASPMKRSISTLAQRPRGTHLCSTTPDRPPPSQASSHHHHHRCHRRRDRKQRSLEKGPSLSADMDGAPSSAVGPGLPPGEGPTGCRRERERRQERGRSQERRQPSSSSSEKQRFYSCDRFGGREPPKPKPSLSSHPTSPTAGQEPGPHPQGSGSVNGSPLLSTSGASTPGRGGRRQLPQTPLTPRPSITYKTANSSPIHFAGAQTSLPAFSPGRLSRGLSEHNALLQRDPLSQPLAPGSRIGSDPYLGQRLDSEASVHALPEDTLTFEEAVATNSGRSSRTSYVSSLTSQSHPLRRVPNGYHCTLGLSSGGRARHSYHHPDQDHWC
T3 sequence (P54284 whole entry partner): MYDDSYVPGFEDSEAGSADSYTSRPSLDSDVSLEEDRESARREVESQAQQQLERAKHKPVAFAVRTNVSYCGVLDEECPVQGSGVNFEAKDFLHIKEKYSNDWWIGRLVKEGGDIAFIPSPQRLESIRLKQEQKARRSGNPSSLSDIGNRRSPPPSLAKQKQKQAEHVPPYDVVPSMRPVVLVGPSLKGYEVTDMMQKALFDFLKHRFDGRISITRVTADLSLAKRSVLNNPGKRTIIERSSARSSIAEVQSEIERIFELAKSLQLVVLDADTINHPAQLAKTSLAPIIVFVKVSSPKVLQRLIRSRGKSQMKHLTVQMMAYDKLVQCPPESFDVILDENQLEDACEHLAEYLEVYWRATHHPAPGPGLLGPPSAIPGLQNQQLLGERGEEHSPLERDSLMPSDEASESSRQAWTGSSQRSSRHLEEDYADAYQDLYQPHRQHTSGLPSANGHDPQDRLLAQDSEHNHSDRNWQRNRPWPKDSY
T3 sequence (P54289 25-956 partner limits assumed): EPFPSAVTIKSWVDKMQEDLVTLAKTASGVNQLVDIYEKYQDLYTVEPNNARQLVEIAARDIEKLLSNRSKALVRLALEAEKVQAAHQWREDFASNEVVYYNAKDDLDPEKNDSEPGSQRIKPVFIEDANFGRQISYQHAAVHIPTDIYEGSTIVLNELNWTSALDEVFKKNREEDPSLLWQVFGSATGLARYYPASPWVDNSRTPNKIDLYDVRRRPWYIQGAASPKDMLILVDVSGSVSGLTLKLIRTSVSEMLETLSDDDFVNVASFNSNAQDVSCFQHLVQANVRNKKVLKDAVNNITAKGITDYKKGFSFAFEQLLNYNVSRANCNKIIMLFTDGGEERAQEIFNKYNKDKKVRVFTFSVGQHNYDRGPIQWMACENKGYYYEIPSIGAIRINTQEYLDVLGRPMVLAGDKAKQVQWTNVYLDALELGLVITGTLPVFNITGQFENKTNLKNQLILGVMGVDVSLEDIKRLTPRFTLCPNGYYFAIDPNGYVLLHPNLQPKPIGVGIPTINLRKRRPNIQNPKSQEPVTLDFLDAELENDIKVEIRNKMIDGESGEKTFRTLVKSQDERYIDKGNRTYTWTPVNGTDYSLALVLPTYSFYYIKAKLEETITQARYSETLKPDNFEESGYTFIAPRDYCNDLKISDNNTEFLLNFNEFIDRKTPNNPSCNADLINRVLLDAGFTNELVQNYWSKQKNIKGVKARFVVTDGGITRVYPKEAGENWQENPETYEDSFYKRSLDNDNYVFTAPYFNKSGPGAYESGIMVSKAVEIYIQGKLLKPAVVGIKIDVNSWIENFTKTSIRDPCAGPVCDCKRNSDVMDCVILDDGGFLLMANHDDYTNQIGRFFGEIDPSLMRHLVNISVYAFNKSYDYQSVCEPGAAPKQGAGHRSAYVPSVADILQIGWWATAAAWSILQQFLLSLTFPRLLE
T3 sequence (P54289 957-1103 partner limits assumed): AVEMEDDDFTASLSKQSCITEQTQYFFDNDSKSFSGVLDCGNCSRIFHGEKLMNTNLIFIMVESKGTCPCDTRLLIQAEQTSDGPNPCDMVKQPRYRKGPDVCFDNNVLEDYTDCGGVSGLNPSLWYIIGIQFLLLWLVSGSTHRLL
Summary of the method: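 HEK293 cells stably expressing CaV2.2 stained with CC2-DMPE/DiSBAC2(3) voltage-sensitive dyes (10 μM final CC2-DMPE, 30 min, RT), then compound added and cells electrically stimulated for 3-5 s. Read-out: background-subtracted 460/580 nm emission ratio; response R=Rf/Ri (post- vs pre-stimulus ratio); antagonism seen as reduced response.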

NaV1.3 [4] = target: T1, NaV1.3; experiment: VIPR optical membrane potential assay with electrical stimulation, NaV1.3; assay type: cell-based; settings: Table 9, NaV 1.3 receptors
Summary of the method: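 HEK293 cells stably expressing NaV1.3, stained with CC2-DMPE (10 μM final) then DiSBAC2(3) with ABSC1, 30 min each at RT; compounds added with oxonol. Electrical stimulation for 3 s; 460/580 nm background-subtracted emission ratio Rf/Ri, normalised to tetracaine (positive) and untreated (negative) controls.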

NaV1.8 [5] = target: T2, NaV1.8; experiment: VIPR optical membrane potential assay, NaV1.8 (other subtypes in an analogous mode); assay type: cell-based; settings: Table 9, NaV 1.8 receptors
Summary of the method: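 Cells expressing the NaV subtype stained with coumarin and DiSBAC2(3) membrane-potential dyes, then incubated with test compound for 20-30 minutes. Depolarization evoked by sodium addback and read optically on VIPR; block measured as reduced membrane-potential response, with tetracaine as positive control.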

| SMILES | IC50 (CaV2.2) [µM] | IC50 (NaV1.3 [4]) [µM] | IC50 (NaV1.8 [5]) [µM] | also measured |
| --- | --- | --- | --- | --- |
| NCC1(CC(=O)O)CCCCC1 [Gabapentin] |  |  |  | patients in whom it works [1]: 60% |
| NC1=N[C@H](O)[C@H]2[C@H]3O[C@]4(O)O[C@@H]([C@@H](O)[C@@]2(N1)[C@@H]4O)[C@]3(O)CO [TTX, tetrodotoxin] |  |  |  | IC50 (NaV1.3 [2]): 0.015 µM; IC50 (NaV1.6): 0.006 µM; IC50 (NaV1.8 [3]): > 50 µM; IC50 (NaV1.9): 1 µM; IC50 (NaV1.1): 0.01 µM; IC50 (NaV1.2): 0.01 µM |
| Cc1nc(N2CCCCC2)nc(-c2ccccc2F)c1C(=O)N(Cc1ccc2c(c1)CCO2)C1CC1 [compound 192] | > 10 | > 10 | > 10 |  |
| COc1ccc(CN(C(=O)c2cnc(N3CCN(C)CC3)nc2-c2ccccc2F)C2CC2)cc1 [compound 193] | > 10 | > 10 | > 10 |  |
| CC(C)N(Cc1ccccc1)C(=O)c1cnc(N2CCOCC2)nc1-c1ccccc1Cl [compound 194, N-benzyl-4-(2-chlorophenyl)-N-isopropyl-2-morpholinopyrimidine-5-carboxamide] | < 2 | 2 to 10 | 2 to 10 |  |
| O=C(c1cnc(N2CCOCC2)nc1-c1ccccc1F)N(Cc1cccc(C(F)(F)F)c1)C1CC1 [compound 195] | 2 to 10 | > 10 | > 10 |  |
| O=C(NC1CCCCC1)c1cnc(N2CCOCC2)nc1-c1ccccc1F [compound 196] | > 10 | > 10 | > 10 |  |
| COc1cccc(N(C(=O)c2cnc(N3CCOCC3)nc2-c2ccccc2F)C2CCOCC2)c1 [compound 197] | > 10 | > 10 | > 10 |  |
| CC(C)N(Cc1ccc(N2CCCC2)cc1)C(=O)c1cnc(N2CCCCC2)nc1-c1ccccc1Cl [compound 198] | 2 to 10 | > 10 | > 10 |  |
| CN(CCc1ccccc1)C(=O)c1cnc(N2CCOCC2)nc1-c1ccccc1F [compound 199] | > 10 | > 10 | > 10 |  |
| Cc1nc(N2CCOCC2)nc(-c2ccccc2F)c1C(=O)N(Cc1ccc2c(c1)CCO2)C1CC1 [compound 200] | 2 to 10 | 2 to 10 | > 10 |  |
| CC(C)N(C(=O)c1cnc(N2CCSCC2)nc1-c1ccccc1F)c1ccccc1 [compound 201] | 2 to 10 | 2 to 10 | > 10 |  |
| CC(C)N(C(=O)c1cnc(N2CCOCC2)nc1-c1ccccc1F)c1cccc(C#N)c1 [compound 202] | > 10 | > 10 | > 10 |  |
| COc1cccc(N(C(=O)c2cnc(N3CCCCC3)nc2-c2ccccc2Cl)C2CCOCC2)c1 [compound 203] | > 10 | > 10 | > 10 |  |
| O=C(c1cnc(N2CCSCC2)nc1-c1ccccc1F)N(Cc1cccc(-c2ccncc2)c1)C1CC1 [compound 204] | 2 to 10 | 2 to 10 | > 10 |  |
| O=C(c1cnc(N2CCOCC2)nc1-c1ccccc1F)N(Cc1ccncc1)C1CC1 [compound 205] | > 10 | > 10 | > 10 |  |
| O=C(c1cnc(N2CCSCC2)nc1-c1ccccc1F)N1Cc2ccccc2C1 [compound 206] | > 10 | > 10 | > 10 |  |
| CC(C)N(Cc1ccccc1)C(=O)c1cnc(Nc2ccc(Cl)cc2)nc1-c1ccccc1F [compound 207] | > 10 | > 10 | > 10 |  |
